System: HIV-1 strain NL4-3
Test: p24 antigen inhibition in HIV-1 infected HUT-78 cells
Type: cell-based
Details: for Expected % inhibition: assuming additive effect; for Observed % inhibition: p24, day 9
Protocol: Control cells were pretreated in 3.5 ml maintenance media under the same conditions.
The tubes were centrifuged at 1200 rpm for 5 minutes to pellet the cells and each pellet was resuspended in 1 ml of stock HIV-1 strain NL4-3 (obtained from AIDS Research and Reference Reagent Program, Rockville, Md.) to obtain an MOI (multiplicity of infection) of about 0.05. The cells were incubated at 37° C. for 1 hour to allow viral adsorption to occur. […] These cells were centrifuged as above, the resulting pellets were resuspended in 1 ml of media and incubated for 1 hour at 37° C.
AZT (Burroughs Wellcome Co.) thawed from sterile stock aliquots was serially diluted in media and dispensed at a volume of 100 μl per well of microtiter plate for the cytotoxicity control wells, compound color control wells and the test wells. Treated and untreated infected and uninfected cells were dispensed at a volume of 100 μl per well. […]
The plates were incubated by 37° C. in 5% CO2.
On the 9th day, 20 μl supernatant was removed from above settled cells in the Test, Virus Control and Cell Control wells. The supernatant was assayed for the presence of p24 antigen using a Coulter Corporation p24 Antigen Test Kit in accordance with the manufacturter's directions.
% Observed Inhibition=[(VC-Test)/(VC)]×100
where VC is the mean p24 of the Virus Control wells; and
Test in the mean p24 of the Test wells.
% Expected Inhibition=X+Y(100-X)
Y is observed % inhibition of AZT.

With `CC(=O)N[C@H](CCCNC(=N)N)C(=O)N[C@H](CCCNC(=N)N)C(=O)N[C@H](CCCNC(=N)N)C(=O)N[C@H](CCCNC(=N)N)C(=O)N[C@H](CCCNC(=N)N)C(=O)N[C@H](CCCNC(=N)N)C(=O)N[C@H](CCCNC(=N)N)C(=O)N[C@H](CCCNC(=N)N)C(=O)N[C@H](CCCNC(=N)N)C(N)=O` [4C, acetyl-[D-Arg]9 -NH2] the Expected % inhibition (AZT 0 nM, 4C 0.001 μM) was -412.7%, the Observed % inhibition (AZT 0 nM, 4C 0.001 μM) was -412.7% and the Expected % inhibition (AZT 0 nM, 4C 0.003 μM) was -256.2%. For the same compound, the Observed % inhibition (AZT 0 nM, 4C 0.003 μM) was -256.2%, the Expected % inhibition (AZT 0 nM, 4C 0.01 μM) was -22.8% and the Observed % inhibition (AZT 0 nM, 4C 0.01 μM) was -22.8%. For the same compound, the Expected % inhibition (AZT 0 nM, 4C 0.03 μM) was 5.9%, the Observed % inhibition (AZT 0 nM, 4C 0.03 μM) was 5.9% and the Expected % inhibition (AZT 0 nM, 4C 0.1 μM) was -177.0%. For the same compound, the Observed % inhibition (AZT 0 nM, 4C 0.1 μM) was -177.0%, the Expected % inhibition (AZT 0 nM, 4C 0.3 μM) was 25.5% and the Observed % inhibition (AZT 0 nM, 4C 0.3 μM) was 25.5%. The Expected % inhibition (AZT 0 nM, 4C 10 μM) was 21.9%, the Observed % inhibition (AZT 0 nM, 4C 10 μM) was 21.9% and the Expected % inhibition (AZT 0 nM, 4C 30 μM) was 26.5%. The Observed % inhibition (AZT 0 nM, 4C 30 μM) was 26.5%.
With `Cc1cn([C@H]2C[C@H](N=[N+]=[N-])[C@@H](CO)O2)c(=O)[nH]c1=O` [AZT, azidothymidine, reference compound] the Expected % inhibition (AZT 10 nM, 4C 0 μM) was -406.1%, the Observed % inhibition (AZT 10 nM, 4C 0 μM) was -406.1% and the Expected % inhibition (AZT 30 nM, 4C 0 μM) was -437.4%. For the same compound, the Observed % inhibition (AZT 30 nM, 4C 0 μM) was -437.4%, the Expected % inhibition (AZT 100 nM, 4C 0 μM) was -14.2% and the Observed % inhibition (AZT 100 nM, 4C 0 μM) was -14.2%. It also gave an Expected % inhibition (AZT 300 nM, 4C 0 μM) of -9.8%, an Observed % inhibition (AZT 300 nM, 4C 0 μM) of -9.8% and an Expected % inhibition (AZT 1000 nM, 4C 0 μM) of -7.7%. It also gave an Observed % inhibition (AZT 1000 nM, 4C 0 μM) of -7.7%.
